Results on two compounds are retold here after patent US20170306322A1, “METHODS AND MATERIALS FOR IDENTIFYING COMPOUNDS PROMOTING TRA[…]-THROUGH OF NONSENSE MUTATIONS” (Evolva SA, priority 2013, published 2017).

Test [1] deals with native stop codons in human genes (V-ATPase, Mdm2, ArhGAP1, DAT and PKCb, and striatin). Put plainly: Yeast URA3 reporter spot test with native stop codons of human genes. In kind it is cell-based. From the text: In a similar set-up, read-through of 6 native stop codons in human genes (V-ATPase, Mdm2, ArhGAP1, DAT and PKCb, and striatin) was examined in front of the URA3 reporter system. […] A representative spot-test analysis is shown in FIG. 3B, where a strain containing the native stop codon of the human striatin gene was compared with the strain containing the APC premature stop codon mutant.

In test [2] the test system is APC premature stop codon C1450X. Put plainly: Yeast APC premature stop codon URA3/ADE2 reporter spot test on plates. Format: cell-based. The settings on record: 20 ug/ml G418, spot test, 3-5 days at 30° C., Pgal1-APCmut-URA3/ADE2 strain. From the text: A nucleic acid sequence containing a nonsense mutation was introduced into a yeast expression construct under the transcriptional control of a promoter e.g., an inducible promoter such as a galactose inducible promoter. The nucleic acid sequence containing the nonsense mutation was fused to a first marker gene such as URA3 and/or ADE2 (or other gene that results in an auxotroph if the gene is not transcribed and translated). The plasmid was integrated into an intergenic region in the genome of a modified yeast strain harboring deletion of ura3 and/or ade2 using conventional LiAc yeast transformation methods. Integrants were selected on media plates containing the antibiotic Hygromycin B or lacking histidine selecting for the marker present on the expression plasmid. Integrated strains were incubated with test compounds and plated on relevant growth media. Suitable test compounds include, for example, libraries of small molecules or expression libraries. […] Production of URA3 allowed the yeast cells to grow and form colonies on media lacking uracil after 2-4 days incubation at 30° C. Production of ADE2 conferred a white coloration of the yeast colonies and allowed the yeast cells to grow and form colonies on media plates lacking adenine after 2-4 days incubation at 30° C. […]
Next, the yeast strains were tested for read-through of the stop codon in the presence of the aminoglycoside G418. […]

The test system of test [3] is APC premature stop codon luciferase reporter. Nature of the test: Dual Luciferase Assay, yeast APC premature stop codon Fluc reporter. The settings on record: haploid and diploid strains (EFSC2740), compared to vehicle only (DMSO), triplicate. Format: cell-based. The procedure:
To assess functionality of the Fluc reporter system, a luciferase activity protocol for the Dual Luciferase® Assay kit (Promega) was optimized to be able to test yeast strains in 96-well format. A representative experiment is outlined here. The yeast were incubated for 30° C. overnight. The luciferase assay was performed according to manufacturer's recommended protocol. Briefly, yeast cells were resuspended in SCgal culture media and measured at A600. A 10 uL sample was transferred to a white-opaque-bottom 96-well plate, mixed with 50 uL of passive lysis buffer and incubated at room-temperature for 20-30 minutes with gentle shaking. Next, 50 uL of luciferase assay reagent II and 50 uL of Stop & Glo® reagent were added. The plate was read in a plate reader using a dual luciferase program. The remaining yeast culture was maintained at 30° C. and the luciferase assays was performed daily.
The results of the above Dual Luciferase® Assay experiment are shown in FIG. 4 (samples were tested in triplicate and data was analyzed by GraphPad® with error bars showing mean with 95% confidence interval). Here, 3 different integration sites for the Fluc reporter were analyzed both in a haploid assay strain and in a diploid setting in the presence of aminoglycosides G418 and paromomycin. […]

The subject of test [4] is P53 STOP (TAA198), P53 STOP (TAG221), P53 STOP (TGA196). Nature of the test: Yeast p53 stop codon URA3 reporter suppression on SCgal-ura plates. Format: cell-based. Here is the method:
In addition to the APC stop-codon assay, other oncology targets including p53 were analyzed. Here, yeast strains were engineered with PGAL1-P53 STOP (TAA198)-URA3 (EFSC2231 and EFSC2233), PGAL1-P53 STOP (TAG221)-URA3 (EFSC2186 and EFSC2200) and PGAL1-P53 STOP (TGA196)-URA3 (EFSC2232 and EFSC2201) reporter integrated at the PRP5 locus. The strains were tested for suppression with G418 on SCgal-ura plates supplemented with increasing G418 concentrations.

Test [5] deals with premature stop codon in APC. Put plainly: Liquid suppression test, strain EFSC2686, APC premature stop codon URA3 reporter. Format: cell-based, yeast. The procedure:
Liquid suppression tests were also conducted with a different aminoglycoside, paromomycin. Read-through of the premature stop codon in APC was also observed after liquid cultivation of the strain in the presence of increasing concentrations of the aminoglycoside paromomycin. Here, strain EFSC2686 was grown in SCgal-ura media in the presence of increasing amounts of drug (0-500 uM) and growth rate was monitored on a daily basis. The presence of ≧250 uM paromomycin supports growth in SCgal media lacking uracil after 4 days incubation (see FIG. 3C).

“Also recorded” adds a separate entry of the source. Where only a bound is given, the exact number is not on record here.

Turning to `CN[C@@H]1[C@@H](O)[C@@H](O[C@@H]2[C@@H](O)[C@H](O[C@H]3O[C@H]([C@@H](C)O)[C@@H](O)[C@H](O)[C@H]3N)[C@@H](N)C[C@H]2N)OC[C@]1(C)O` [G418], the “selectivity of suppression, premature versus native stop codons” value in test [1] (20 ug/ml G418, APC mutant versus 6 native stop codons) was “selective for premature stop codons”. Besides, the “read-through of native stop codons (growth on SCgal-uracil)” value in test [1] (SCgal-uracil + 20 ug/ml G418, 6 native stop codons) is given as “no detectable read-through of stop codon was observed”. Further, the “read-through of the APC premature stop codon (growth on SCgal-ura plates)” value in test [2] is on record as “allows translation read-through of the APC gene; also recorded: triggered read-through of the stop codon”. In addition, the Firefly luciferase activity entry in test [3] is “able to induce luciferase activity; also recorded: robust and significant Firefly luciferase activity”. Besides, the “order of suppression response by stop codon” value in test [4] (G418, SCgal-ura plates) is “TGA>TAG>TAA”. In test [4] (increasing G418 concentrations, TAA198, TAG221 and TGA196 strains, all cases), the “expression of Ura3p, growth on SCgal-ura3 plates” value is “able to trigger expression of Ura3p”.
In the case of `NC[C@@H]1O[C@H](O[C@H]2[C@@H](O)[C@H](O[C@@H]3[C@@H](O)[C@H](N)C[C@H](N)[C@H]3O[C@H]3O[C@H](CO)[C@@H](O)[C@H](O)[C@H]3N)O[C@@H]2CO)[C@H](N)[C@@H](O)[C@@H]1O` [paromomycin], the “suppression of the APC stop codon, production of URA3 protein” value in test [5] (liquid cultivation, FIG. 3C) is “leads to suppression of the APC stop codon and production of URA3 protein”. For the same compound, the “paromomycin concentration that supports growth in SCgal media lacking uracil” value in test [5] (strain EFSC2686, 0-500 uM tested, after 4 days incubation) was at least 250 µM. In addition, the Firefly luciferase activity entry in test [3] is recorded as “able to induce luciferase activity”.
